From ChEMBL document CHEMBL5385881, “Design, synthesis, and discovery of Eudistomin Y derivatives as lysosome-targeted antiproliferation agents” (Eur J Med Chem, 2023)

What was measured:
Type in all cases: functional, cell-based
[1] = test system: MDA-MB-231; assay: Cytotoxicity against human MDA-MB-231 cells assessed as cell inhibition measured after 72 hrs by MTT assay; conditions: MDA-MB-231, 72 h
[2] = test system: A549; assay: Cytotoxicity against human A549 cells assessed as cell inhibition measured after 72 hrs by MTT assay; conditions: A549, 72 h
[3] = test system: SGC-7901; assay: Cytotoxicity against human SGC-7901 cells assessed as cell inhibition measured after 72 hrs by MTT assay; conditions: SGC-7901, 72 h
[4] = test system: LS180; assay: Cytotoxicity against human LS180 cells assessed as cell inhibition measured after 72 hrs by MTT assay; conditions: LS180, 72 h
[5] = test system: HepG2; assay: Cytotoxicity against human HepG2 cells assessed as cell inhibition measured after 72 hrs by MTT assay; conditions: HepG2, 72 h

Compound	IC50 [1]	IC50 [2]	IC50 [3]	IC50 [4]	IC50 [5]
O=C(c1ccc(OCc2ccccc2)cc1)c1nccc2c1[nH]c1ccccc12	11.2 µM	15.6 µM	55.1 µM	20.7 µM	203 µM
O=C(c1ccccc1)c1nccc2c1[nH]c1ccccc12	66.1 µM	74.3 µM	345 µM	258 µM	244 µM
Cc1cccc(Cn2c3ccccc3c3ccnc(C(=O)c4ccc(O)cc4)c32)c1	65.6 µM	26.8 µM	27.5 µM	25.5 µM	38.8 µM
O=C(c1ccccc1)c1nccc2c3ccccc3n(Cc3ccc([N+](=O)[O-])cc3)c12	31.4 µM	10.2 µM	7.1 µM	4.4 µM	18.7 µM
O=c1[nH]cc(F)c(=O)[nH]1 [FLUOROURACIL]	67.5 µM	1.3 µM	13.1 µM	3.4 µM	–
